# Measured values as given in paper PMC3623016 (Journal of biomolecular screening, 2012).
# Values joined by “and” are separate entries in the source; they are usually repeats but may differ in a detail not shown here. Identical values can stand only once.
# Columns and labels:
# Ig-MXP3 cells = assay: Direct cytotoxicity; format: cell-based
# ABCG2 = biological target: T1, ABCG2 (Homo sapiens, UniProt Q9UNQ0); assay: JC-1 efflux inhibition dose-response, flow cytometry, Ig-MXP3 cells; format: cell-based; conditions: quotient of average ABCB1 IC50 and average ABCG2 IC50, JC-1 efflux assay
# T1 sequence (Q9UNQ0 1-655): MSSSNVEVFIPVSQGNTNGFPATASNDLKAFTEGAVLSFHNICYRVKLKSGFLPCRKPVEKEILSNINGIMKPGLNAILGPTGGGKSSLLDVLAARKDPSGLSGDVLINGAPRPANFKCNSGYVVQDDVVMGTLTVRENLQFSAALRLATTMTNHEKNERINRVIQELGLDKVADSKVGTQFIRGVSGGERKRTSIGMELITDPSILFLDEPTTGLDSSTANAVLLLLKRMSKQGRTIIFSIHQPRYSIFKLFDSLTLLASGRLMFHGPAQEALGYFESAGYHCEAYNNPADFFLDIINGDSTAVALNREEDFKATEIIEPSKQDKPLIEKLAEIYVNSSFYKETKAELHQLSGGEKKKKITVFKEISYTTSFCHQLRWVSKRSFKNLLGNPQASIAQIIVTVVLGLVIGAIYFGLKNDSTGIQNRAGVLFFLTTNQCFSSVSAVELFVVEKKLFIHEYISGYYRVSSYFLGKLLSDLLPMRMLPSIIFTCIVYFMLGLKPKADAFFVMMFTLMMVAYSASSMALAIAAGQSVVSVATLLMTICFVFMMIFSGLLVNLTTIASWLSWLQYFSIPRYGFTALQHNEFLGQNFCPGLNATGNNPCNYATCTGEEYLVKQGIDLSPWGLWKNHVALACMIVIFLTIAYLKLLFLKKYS
Compound,ABCB1 TD50 (Jurkat-DNR cells) [µM],ABCG2 TD50 (Ig-MXP3 cells) [µM],∼Fold G2 Selective (ABCG2)
"O=C(NCCCN1CCOCC1)c1cnn2c(-c3ccccc3)cc(-c3ccccc3)nc12 [Compound 6, reversan, reference compound]",7.04,>100,–
O=C(c1ccco1)N1CCN(c2cc(-c3ccccc3)nc3cc(-c4cccc(Cl)c4)nn23)CC1 [Compound 8],6.77,6.00,6.4 fold
Cc1nc2cc(-c3cccc(Cl)c3)nn2c(N2CCN(C(=O)c3ccco3)CC2)c1C [Compound 9],>100,47.40,3.2 fold
Cc1cc(N2CCN(C(=O)c3ccco3)CC2)n2nc(-c3cccc(Cl)c3)cc2n1 [Compound 10],–,–,2.1 fold
O=C(c1ccoc1)N1CCN(c2cc(-c3ccccc3)nc3cc(-c4cccc(Cl)c4)nn23)CC1 [Compound 11],–,–,7 fold and 7.2 fold
O=C(c1ccsc1)N1CCN(c2cc(-c3ccccc3)nc3cc(-c4cccc(Cl)c4)nn23)CC1 [Compound 12],–,–,2.8 fold
O=C(c1ccccc1)N1CCN(c2cc(-c3ccccc3)nc3cc(-c4cccc(Cl)c4)nn23)CC1 [Compound 13],–,–,2.4 fold
COc1ccccc1C(=O)N1CCN(c2cc(-c3ccccc3)nc3cc(-c4cccc(Cl)c4)nn23)CC1 [Compound 14],–,–,1.0 fold
COc1cccc(C(=O)N2CCN(c3cc(-c4ccccc4)nc4cc(-c5cccc(Cl)c5)nn34)CC2)c1 [Compound 15],>100,>100,0.6 fold
COc1ccc(C(=O)N2CCN(c3cc(-c4ccccc4)nc4cc(-c5cccc(Cl)c5)nn34)CC2)cc1 [Compound 16],–,–,1.0 fold
O=C(c1ccccc1Cl)N1CCN(c2cc(-c3ccccc3)nc3cc(-c4cccc(Cl)c4)nn23)CC1 [Compound 17],–,–,1.4 fold
O=C(c1cccc(Cl)c1)N1CCN(c2cc(-c3ccccc3)nc3cc(-c4cccc(Cl)c4)nn23)CC1 [Compound 18],–,–,1.4 fold
O=C(c1ccc(Cl)cc1)N1CCN(c2cc(-c3ccccc3)nc3cc(-c4cccc(Cl)c4)nn23)CC1 [Compound 19],–,–,0.9 fold
O=C(c1cccnc1)N1CCN(c2cc(-c3ccccc3)nc3cc(-c4cccc(Cl)c4)nn23)CC1 [Compound 20],4.72,10.30,2.5 fold
O=C(c1ccncc1)N1CCN(c2cc(-c3ccccc3)nc3cc(-c4cccc(Cl)c4)nn23)CC1 [Compound 21],10.90,28.30,1.1 fold
O=C(C1CCCCC1)N1CCN(c2cc(-c3ccccc3)nc3cc(-c4cccc(Cl)c4)nn23)CC1 [Compound 22],–,–,1.2 fold
CC(=O)N1CCN(c2cc(-c3ccccc3)nc3cc(-c4cccc(Cl)c4)nn23)CC1 [Compound 23],–,–,0.9 fold
O=C(Cc1ccccc1)N1CCN(c2cc(-c3ccccc3)nc3cc(-c4cccc(Cl)c4)nn23)CC1 [Compound 24],17.80,>100,0.8 fold
O=C(c1ccoc1)N1CCN(c2cc(-c3ccccc3F)nc3cc(-c4cccc(Cl)c4)nn23)CC1 [Compound 26],–,–,2.4 fold
O=C(c1ccoc1)N1CCN(c2cc(-c3ccc(F)cc3)nc3cc(-c4cccc(Cl)c4)nn23)CC1 [Compound 27],–,–,2.3 fold
COc1cccc(-c2cc(N3CCN(C(=O)c4ccoc4)CC3)n3nc(-c4cccc(Cl)c4)cc3n2)c1 [Compound 28],–,–,1.9 fold
COc1ccc(-c2cc(N3CCN(C(=O)c4ccoc4)CC3)n3nc(-c4cccc(Cl)c4)cc3n2)cc1 [Compound 29],–,–,2.4 fold
O=C(c1ccoc1)N1CCN(c2cc(-c3cccnc3)nc3cc(-c4cccc(Cl)c4)nn23)CC1 [Compound 30],5.33,5.77,2.9 fold
O=C(c1ccoc1)N1CCN(c2cc(-c3ccncc3)nc3cc(-c4cccc(Cl)c4)nn23)CC1 [Compound 31],13.50,57.80,2.5 fold
C#Cc1cc(N2CCN(C(=O)c3ccoc3)CC2)n2nc(-c3cccc(Cl)c3)cc2n1 [Compound 32],–,–,4.3 fold
O=C(c1ccoc1)N1CCN(c2cc(-c3ccccc3)nc3cc(-c4ccc(Br)cc4)nn23)CC1 [Compound 33],–,–,1.7 fold

Compound,ABCB1 TD50 (Jurkat-DNR cells) [µM],ABCG2 TD50 (Ig-MXP3 cells) [µM],∼Fold G2 Selective (ABCG2)
COc1ccccc1-c1cc2nc(-c3ccccc3)cc(N3CCN(C(=O)c4ccoc4)CC3)n2n1 [Compound 34],4.37,6.50,4.8 fold
COc1cccc(-c2cc3nc(-c4ccccc4)cc(N4CCN(C(=O)c5ccoc5)CC4)n3n2)c1 [Compound 35],–,–,2.0 fold
COc1ccc(-c2cc3nc(-c4ccccc4)cc(N4CCN(C(=O)c5ccoc5)CC4)n3n2)cc1 [Compound 36],5.54,>100,1.2 fold
COc1ccccc1-c1cc2nc(-c3ccccc3)cc(N3CCN(C(=O)c4ccco4)CC3)n2n1 [Compound 37],–,–,2.9 fold
COc1cccc(-c2cc3nc(-c4ccccc4)cc(N4CCN(C(=O)c5ccco5)CC4)n3n2)c1 [Compound 38],–,–,3.4 fold
CCCN(CCc1ccccc1)C(=O)[C@@H]1OC(C(=O)O)=C[C@H](O)[C@H]1NC(C)=O [Compound 39],–,–,2.7 fold
Cc1cccc(-c2cc3nc(-c4ccccc4)cc(N4CCN(C(=O)c5ccco5)CC4)n3n2)c1 [Compound 40],–,–,1.6 fold
COc1ccccc1-c1cc2nc(-c3ccccc3)cc(N3CCN(C(=O)c4ccccc4)CC3)n2n1 [Compound 41],–,–,3.0 fold
O=C(c1ccccc1)N1CCN(c2cc(-c3ccccc3)nc3cc(-c4cccc(F)c4)nn23)CC1 [Compound 42],–,–,1.9 fold
O=C(c1ccccc1)N1CCN(c2cc(-c3ccccc3)nc3cc(-c4ccc(F)cc4)nn23)CC1 [Compound 43],–,–,2.0 fold
COc1ccccc1-c1cc(N2CCN(C(=O)c3ccoc3)CC2)n2nc(-c3ccccc3)cc2n1 [Compound 44],3.73,7.62,1.2 fold
COc1ccc(-c2cc(N3CCN(C(=O)c4ccoc4)CC3)n3nc(-c4ccccc4)cc3n2)cc1 [Compound 45],–,–,1.9 fold
O=C(c1ccoc1)N1CCN(c2cc(-c3ccccc3F)nc3cc(-c4ccccc4)nn23)CC1 [Compound 46],–,–,10.0 fold
O=C(c1ccoc1)N1CCN(c2cc(-c3cccc(F)c3)nc3cc(-c4ccccc4)nn23)CC1 [Compound 47],–,–,4.2 fold
O=C(c1ccoc1)N1CCN(c2cc(-c3ccc(F)cc3)nc3cc(-c4ccccc4)nn23)CC1 [Compound 48],–,–,1.8 fold
CC(C)(C)c1cc(N2CCN(C(=O)c3ccoc3)CC2)n2nc(-c3ccccc3)cc2n1 [Compound 49],–,–,0.5 fold
O=C(c1ccoc1)N1CCN(c2cc(-c3ccco3)nc3cc(-c4ccco4)nn23)CC1 [Compound 52],1.93,>100,–
O=C(c1ccoc1)N1CCN(c2cc(-c3ccco3)nc3cc(-c4cccc(Cl)c4)nn23)CC1 [Compound 53],8.53,10.80,–
COc1cccc(-c2cc3nc(-c4ccco4)cc(N4CCN(C(=O)c5ccoc5)CC4)n3n2)c1 [Compound 56],5.52,>100,–
COc1ccc(-c2cc3nc(-c4ccco4)cc(N4CCN(C(=O)c5ccoc5)CC4)n3n2)cc1 [Compound 57],>100,>100,–
O=C(c1ccoc1)N1CCN(c2cc(-c3ccoc3)nc3cc(-c4ccccc4)nn23)CC1 [Compound 61],7.33,18.30,–
COc1cccc(-c2cc(N3CCN(C(=O)c4ccoc4)CC3)n3nc(-c4ccccc4)cc3n2)c1 [Compound 65],5.77,67.80,83 fold
CC(=O)N1CCN(c2cc(-c3ccco3)nc3cc(-c4ccccc4)nn23)CC1 [Compound 74],10.10,>100,–
CC(=O)N1CCN(c2cc(-c3ccco3)nc3cc(-c4cccc(Cl)c4)nn23)CC1 [Compound 87],17.60,>100,–
COc1cccc(-c2cc3nc(-c4ccco4)cc(N4CCN(C(C)=O)CC4)n3n2)c1 [Compound 88],49.30,>100,–
"XR9051 [Compound 2, reference compound]",1.97,21.40,–
